Where two headings read alike, the source gives them in different places.
Biological target: T1, Cathepsin K (Homo sapiens, UniProt P43235)
T1 sequence (P43235 115-329): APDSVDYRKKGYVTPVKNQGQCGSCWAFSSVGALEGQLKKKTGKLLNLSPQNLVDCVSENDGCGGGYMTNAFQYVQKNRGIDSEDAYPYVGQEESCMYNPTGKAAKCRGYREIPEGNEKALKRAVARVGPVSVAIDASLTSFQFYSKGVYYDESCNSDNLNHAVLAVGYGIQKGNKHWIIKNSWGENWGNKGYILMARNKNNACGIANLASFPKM
Experiment: Study of Cathepsin K inhibition (fluorescence, Z-Val-arg-AMC)
Format: biochemical
Method: Study of Cathepsin K Inhibition:
The products to be tested (10 mM) are diluted to […] in DMSO and distributed into Nunc polystyrene 96 well plates at a rate of 2 μl per well. Column 12 of the plate is reserved for the controls and therefore receives […] of DMSO (without products) per well. The plates are stored at −80° C. and thawed on the day of the experiment.
The products are diluted to 50 μM by adding 38 μl of reaction buffer: sodium acetate 100 mM, EDTA 5 mM, DTT […] pH 5.5. The addition as well as all the operations by pipette are carried out with a CybiWell 96 tip pipette. After mixing the solutions, each product is transferred into 2 wells (duplicates) of a Greiner black 384 well plate at a rate of 10 μl per well. Two 96-well plates can therefore be tested in a 384-well plate.
A solution of substrate at 50 μM, Z-Val-arg-AMC (Calbiochem), is prepared in the reaction buffer. The substrate, is then distributed into all the wells of the 384-well plate (20 μl per well).
A solution of Cathepsin K at 12.5 ng/ml is prepared in the reaction buffer and distributed into all the wells of the 384-well plate (20 μl per well) except for the 16 wells serving as 100% inhibition controls (column 23 and 24, lines I to P) which receive 20 μl of enzyme-free buffer.
The plates are then incubated 2H at ambient temperature, then read on Fluoroskan (Labsystems): excitation 390 nm; emission 460 nm
The final concentrations of each of the reagents are: products 10 μM, substrate 20 μM, enzyme 5 ng/ml.
The % inhibition for each of the products is calculated by using points at 0 and 100% inhibition of each plate as references. The products presenting a significant inhibition are then retested on a range of concentrations from 50 to 0.5 μM to determine an IC50.

[1] = substrate Z-Val-arg-AMC 20 μM, enzyme 5 ng/ml, 2H at ambient temperature, read-out: Cathepsin K IC50

| Structure (SMILES) | IC50 [1] | also measured |
| --- | --- | --- |
| C=CCOC(=O)CC[C@H](NC(=O)[C@@H]1CCCN2C(=O)CC[C@H](NC(=O)NC3CCCCC3)C(=O)N12)C(=O)C=[N+]=[N-] [Example 42, (2-propenyl)(4S)6-diazo-4-[[[(1S,9S)-9-[[(cyclohexylamino)carbonyl]amino]-octahydro-6,10-dioxo-6H-pyridazino[1,2-a][1,2]diazepine-1-yl]carbonyl]amino]-5-oxo-hexanoate] | 4 µM | – |
| C=CCOC(=O)CCC(NC(=O)C1CCCN2C(=O)CCC(NC(=O)NCCc3cccs3)C(=O)N12)C(=O)CSc1nnnn1-c1ccccc1 [Example 138, (2-propenyl)(4S)6-[(1-phenyl-1H-tetrazol-5-yl)thio]-4-[[[(1S,9S)-^9-[[[[^2-(thien-2-yl)-ethyl]amino]carbonyl]amino]-octahydro-6,10-dioxo-6H-pyridazino[1,2-a][1,2]diazepine-1-yl]carbonyl]amino]-5-oxo-hexanoate] | 29 µM | – |
| CC(C)C[C@H](NC(=O)[C@@H]1CCCN2C(=O)CC[C@H](NS(C)(=O)=O)C(=O)N12)C(=O)C=[N+]=[N-] [Example 346, 9-[(9S)-(methylsulphonyl)amino]-N-((3S)-1-diazo-5-methyl-2-oxo-3-hexyl)-octahydro-6,10-dioxo-6H-(1S)-pyridazino[1,2-a][1,2]diazepine-1-carboxamide] | 6 µM | – |
| C=CCOC(=O)CC[C@H](NC(=O)[C@@H]1CCCN2C(=O)CC[C@H](NS(=O)(=O)c3ccc(C(F)(F)F)cc3)C(=O)N12)C(=O)C=[N+]=[N-] [Example 46, (2-propenyl)(4S)6-diazo-4-[[[(1S,9S)-9-[[[4-(trifluoromethyl)phenyl]sulphonyl]amino]-octahydro-6,10-dioxo-6H-pyridazino[1,2-a][1,2]diazepine-1-yl]carbonyl]amino]-5-oxo-hexanoate] | 6 µM | – |
| C=CCOC(=O)CC[C@H](NC(=O)[C@@H]1CCCN2C(=O)CC[C@H](NC(=O)C(C)C)C(=O)N12)C(=O)C=[N+]=[N-] [Example 38, (2-propenyl)(4S)6-diazo-4-[[[(1S,9S)-9-[(2-methyl-1-oxo-propyl)amino]-octahydro-6,10-dioxo-6H-pyridazino[1,2-a][1,2]diazepine-1-yl]carbonyl]amino]-5-oxo-hexanoate] | 5 µM | – |
| C=CCOC(=O)CC[C@H](NC(=O)[C@@H]1CCCN2C(=O)CC[C@H](NS(=O)(=O)c3ccc4ccccc4c3)C(=O)N12)C(=O)CN1CCN(CC(=O)N2CCCC2)CC1 [Example 117] | – | IC50: 7 µM |
| C=CCOC(=O)CC[C@H](NC(=O)[C@@H]1CCCN2C(=O)CC[C@H](NS(=O)(=O)c3ccc(C(F)(F)F)cc3)C(=O)N12)C(=O)CN1CCN(CC(=O)N2CCCC2)CC1 [Example 107] | 20 µM | – |
| C=CCOC(=O)CC[C@H](NC(=O)[C@@H]1CCCN2C(=O)CC[C@H](NS(=O)(=O)c3ccc4ccccc4c3)C(=O)N12)C(=O)C=[N+]=[N-] [Example 47, (2-propenyl)(4S)6-diazo-4-[[[(1S,9S)-9-[[(2-naphthalenyl)sulphonyl]amino]-octahydro-6,10-dioxo-6H-pyridazino[1,2-a][1,2]diazepine-1-yl]carbonyl]amino]-5-oxo-hexanoate] | 5 µM | – |
| CC(C)C[C@H](NC(=O)[C@@H]1CCCN2C(=O)CC[C@H](NC(=O)c3ccco3)C(=O)N12)C(=O)C=[N+]=[N-] [Example 341, 9-[(9S)-[(2-furanyl)carbonyl]amino]-N-((3S)-1-diazo-5-methyl-2-oxo-3-hexyl)-octahydro-6,10-dioxo-6H-(1S)-pyridazino[1,2-a][1,2]diazepine-1-carboxamide] | 8 µM | – |
| CC(C)C[C@H](NC(=O)[C@@H]1CCCN2C(=O)CC[C@H](NC(=O)C(C)C)C(=O)N12)C(=O)C=[N+]=[N-] [Example 339, 9-[(9S)-(2-methyl-1-oxo-propyl)amino]-N-((3S)-1-diazo-5-methyl-2-oxo-3-hexyl)-octahydro-6,10-dioxo-6H-(1S)-pyridazino[1,2-a][1,2]diazepine-1-carboxamide] | 10 µM | – |
| C=CCOC(=O)CC[C@H](NC(=O)[C@@H]1CCCN2C(=O)CCC[C@H](NC(=O)Nc3ccc(Oc4ccccc4)cc3)C(=O)N12)C(=O)COC(C)=O [Example 133] | 20 µM | Cathepsin K, percentage in parentheses beside IC50 value (% inhibition) (printed beside 20 μM, meaning not explained): 25% |
| C=CCOC(=O)CC[C@H](NC(=O)[C@@H]1CCCN2C(=O)CC[C@H](NS(C)(=O)=O)C(=O)N12)C(=O)C=[N+]=[N-] [Example 45, (2-propenyl)(4S)6-diazo-4-[[[(1S,9S)-9-[(methylsulphonyl)amino]-octahydro-6,10-dioxo-6H-pyridazino[1,2-a][l,2]diazepine-1-yl]carbonyl]amino]-5-oxo-hexanoate] | 0.9 µM | – |
| CC(C)C[C@H](NC(=O)[C@@H]1CCCN2C(=O)CC[C@H](NS(=O)(=O)c3ccc4ccccc4c3)C(=O)N12)C(=O)C=[N+]=[N-] [Example 348, 9-[(9S)-[(2-naphthalenyl)sulphonyl]amino]-N-((3S)-1-diazo-5-methyl-2-oxo-3-hexyl)-octahydro-6,10-dioxo-6H-(1S)-pyridazino[1,2-a][1,2]diazepine-1-carboxamide] | 10 µM | – |

Further lines, with some results ahead:

| IC50 [1] | Structure (SMILES) | also measured |
| --- | --- | --- |
| 20 µM | [N-]=[N+]=CC(=O)[C@H](Cc1ccccc1)NC(=O)[C@@H]1CCCN2C(=O)CC[C@H](NC(=O)NCCc3cccs3)C(=O)N12 [Example 162] | – |
| 8 µM | C[C@H](NC(=O)[C@@H]1CCCN2C(=O)CC[C@H](NC(=O)Nc3ccc(Oc4ccccc4)cc3)C(=O)N12)C(=O)C=[N+]=[N-] [Example 171, 9-[(9S)-[[(4-phenoxyphenyl)amino]carbonyl]amino]-N-((2S)-4-diazo-3-oxo-2-butyl)-octahydro-6,10-dioxo-6H-(1S)-pyridazino[1,2-a][1,2]diazepine-1-carboxamide] | – |
| 5 µM | CC(C)C[C@H](NC(=O)[C@@H]1CCCN2C(=O)CC[C@H](NC(=O)Nc3ccc(Oc4ccccc4)cc3)C(=O)N12)C(=O)C=[N+]=[N-] [Example 344, 9-[(9S)-[[(4-phenoxyphenyl)amino]carbonyl]amino]-N-((3S)-1-diazo-5-methyl-2-oxo-3-hexyl)-octahydro-6,10-dioxo-6H-(1S)-pyridazino[1,2-a][1,2]diazepine-1-carboxamide] | – |
| 20 µM | O=C(Nc1ccc(Oc2ccccc2)cc1)N[C@H]1CCC(=O)N2CCC[C@@H](C(=O)N[C@@H](Cc3ccccc3)C(=O)CN3CCC(Cc4ccccc4)CC3)N2C1=O [Example 218, 9-[(9S)-[[(4-phenoxyphenyl)amino]carbonyl]amino]-N-[(2S)-4-[(4-phenylmethyl)-1-piperidinyl]-1-phenyl-3-oxo-2-butyl]-octahydro-6,10-dioxo-6H-(1S)-pyridazino[1,2-a][1,2]diazepine-1-carboxamide] | – |
| 1.8 µM | C=CCOC(=O)CC[C@H](NC(=O)[C@@H]1CCCN2C(=O)CC[C@H](NC(=O)c3ccco3)C(=O)N12)C(=O)C=[N+]=[N-] [Example 40, (2-propenyl)(4S)6-diazo-4-[[[(1S,9S)-9-[[(2-furanyl)carbonyl]amino]-octahydro-6,10-dioxo-6H-pyridazino[1,2-a][1,2]diazepine-1-yl]carbonyl]amino]-5-oxo-hexanoate] | – |
| 3 µM | C=CCOC(=O)CC[C@H](NC(=O)[C@@H]1CCCN2C(=O)CC[C@H](NC(=O)c3cccc(OC)c3)C(=O)N12)C(=O)C=[N+]=[N-] [Example 39, (2-propenyl)(4S)6-diazo-4-[[[(1S,9S)-9-[(3-methoxybenzoyl)amino]-octahydro-6,10-dioxo-6H-pyridazino[1,2-a][1,2]diazepine-1-yl]carbonyl]amino]-5-oxo-hexanoate] | – |
| 5 µM | CC(C)C[C@H](NC(=O)[C@@H]1CCCN2C(=O)CC[C@H](NC(=O)NCCc3cccs3)C(=O)N12)C(=O)C=[N+]=[N-] [Example 345, 9-[(9S)-[[[2-(thien-2-yl)-ethyl]amino]carbonyl]amino]-N-((3S)-1-diazo-5-methyl-2-oxo-3-hexyl)-octahydro-6,10-dioxo-6H-(1S)-pyridazino[1,2-a][1,2]diazepine-1-carboxamide] | – |
| 20 µM | [N-]=[N+]=CC(=O)[C@H](Cc1ccccc1)NC(=O)[C@@H]1CCCN2C(=O)CC[C@H](NS(=O)(=O)c3ccc4ccccc4c3)C(=O)N12 [Example 165, 9-[(9S)-[(2-naphthalenyl)sulphonyl]amino]-N-( (2S)-4-diazo-1-phenyl-3-oxo-2-butyl)-octahydro-6,10-dioxo-6H-(1S)-pyridazino[1,2-a][1,2]diazepine-1-carboxamide] | – |
| 14 µM | CC(C)C[C@H](NC(=O)[C@@H]1CCCN2C(=O)CC[C@H](NC(=O)NC3CCCCC3)C(=O)N12)C(=O)C=[N+]=[N-] [Example 343, 9-[(9S)-[(cyclohexylamino)carbonyl]amino]-N-((3S)-1-diazo-5-methyl-2-oxo-3-hexyl)-octahydro-6,10-dioxo-6H-(1S)-pyridazino[1,2-a][1,2]diazepine-1-carboxamide] | – |

From US20030100550A1, “Carboxamide diazepin derivatives, preparation method, use as medicines, pharmaceutical compositions and use thereof” (priority 2002, published 2003)
